Laboratory results from patent publication US11766044B2, “Method for controlling PPO resistant weeds” (BASF SE, priority 2016, dated 2023).
Like-named read-outs stand apart in the source and are kept apart here.

How the values were obtained:
[1] = tested on: sensitive (w.10) and resistant weeds (w.11, w.12); test: Third greenhouse experiment, summary in words; type: in vivo, Amaranthus tamariscinus; settings: table 4, 2 and 4 g/ha
[2] = tested on: Amaranthus tamariscinus (AMATA, common waterhemp), Sensitive (w.1); type: in vivo
[3] = tested on: Amaranthus tamariscinus (AMATA, common waterhemp), PPO resistant biotype 1 (w.2); type: in vivo; settings: scale 0 to 100
[4] = tested on: Amaranthus tamariscinus (AMATA, common waterhemp), PPO resistant biotype 2 (w.3); type: in vivo; settings: scale 0 to 100
[5] = tested on: Ambrosia elatior (AMBEL, common ragweed), Sensitive (w.4); type: in vivo; settings: scale 0 to 100
[6] = tested on: Amaranthus tuberculatus (AMATU, tall waterhemp), Sensitive (w.7); test: Greenhouse herbicidal activity test, another (second) experiment, weed w.7; type: in vivo; settings: scale 0 to 100
[7] = tested on: sensitive (w.1, w.4) and resistant weeds (w.2, w.3, w.5, w.6); test: First greenhouse experiment, summary in words; type: in vivo, Amaranthus tamariscinus, Ambrosia elatior; settings: table 2, 1 and 2 g/ha

`CCOC(=O)COc1ccccc1Oc1cc(-n2c(=O)cc(C(F)(F)F)n(C)c2=O)c(F)cc1Cl` [compound (I).4] was tested, and the “activity on both sensitive and resistant weeds” value ([1]; sensitive w.10, resistant w.11, w.12) was “very good activity”.
With `CCOC(=O)COc1ncccc1Oc1cc(-n2c(=O)cc(C(F)(F)F)n(C)c2=O)c(F)cc1Cl` [compound (I).1] the “Weed control (%) w.1” value ([2]; use rate 1 g/ha, scale 0 to 100) was 100%, the “Weed control (%) w.1” value ([2]; use rate 2 g/ha, scale 0 to 100, 100 = complete destruction) was 100% and the “Weed control (%) w.2” value ([3]; use rate 1 g/ha) was 100%. For the same compound, the “Weed control (%) w.2” value ([3]; use rate 2 g/ha) was 100%, the “Weed control (%) w.3” value ([4]; use rate 1 g/ha) was 100% and the “Weed control (%) w.3” value ([4]; use rate 2 g/ha) was 100%. The “Weed control (%) w.4” value ([5]; use rate 1 g/ha) was 100%, the “Weed control (%) w.4” value ([5]; use rate 2 g/ha) was 100% and the “Weed control (%) 7” value ([6]; use rate 1 g/ha) was 100%. The “Weed control (%) 7” value ([6]; use rate 2 g/ha) was 100% and the “activity on both sensitive and resistant weeds” value ([7]; sensitive w.1, w.4, resistant w.2, w.3, w.5, w.6) was “very good activity”.
In the case of `C#CCOc1cc(-n2nc3n(c2=O)CCCC3)c(Cl)cc1Cl` [azafenidin, reference compound], the “control of resistant in comparison to sensitive biotypes” value [1] is reported as “much weaker control”.
In the case of `C#CCN1C(=O)COc2cc(F)c(N3C(=O)C4=C(CCCC4)C3=O)cc21` [flumioxazin, reference compound], the “control of resistant in comparison to sensitive biotypes” value [7] is reported as “much weaker control”.
